From publication PMC10787677, “Characterization of a novel aspartic protease from Trichoderma asperellum for the preparation of duck blood peptides” (Applied Microbiology and Biotechnology, 2024)
Non-standard residues stand in square brackets, D forms with d. Residues, ends and D or L forms follow the SMILES beside them. *: point of attachment. Sta = CC(C)C[C@H](N)[C@@H](O)CC(=O)O; Isovaleryl = CC(C)CC(=O)*

Biological target: T1, TaproA1 (Trichoderma asperellum, UniProt A0A6V8QUH5)
T1 construct: mature enzyme about 36 kDa; precursor 521 residues; purified on Q-Sepharose Fast Flow
T1 sequence (A0A6V8QUH5 189-517 limits assumed): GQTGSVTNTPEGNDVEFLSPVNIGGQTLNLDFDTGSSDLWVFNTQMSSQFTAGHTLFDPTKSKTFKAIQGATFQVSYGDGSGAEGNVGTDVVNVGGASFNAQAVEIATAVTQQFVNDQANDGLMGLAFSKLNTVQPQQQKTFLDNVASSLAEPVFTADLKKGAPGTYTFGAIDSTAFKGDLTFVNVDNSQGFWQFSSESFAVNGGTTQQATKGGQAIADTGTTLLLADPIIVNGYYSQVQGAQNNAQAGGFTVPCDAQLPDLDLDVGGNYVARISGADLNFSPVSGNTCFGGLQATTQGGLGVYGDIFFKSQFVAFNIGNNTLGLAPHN
Assay: residual casein hydrolysis after […] min preincubation, Folin phenol read-out
Type: biochemical
Conditions: read-out: Relative activity ^b (%)

`CC(C)CC(=O)N[C@H](C(=O)N[C@H](C(=O)N[C@@H](CC(C)C)[C@@H](O)CC(=O)N[C@@H](C)C(=O)N[C@@H](CC(C)C)[C@@H](O)CC(=O)O)C(C)C)C(C)C` [Pepstatin A] (Isovaleryl-VV[Sta]A[Sta]-OH) gave an activity at 10 µM of 0.7 ± 0.1%.
